Test results reported in patent US10155802B2, “Locally-active anticoagulants and anti-inflammatory agents” (priority 2011, dated 2018).
Where two headings read alike, the source gives them in different places.

Columns and labels:
[1] = molecular target: T1, Human α-thrombin (Homo sapiens, UniProt P00734); assay: Inhibition of thrombin-catalyzed hydrolysis of chromogenic substrate S-2366 (inhibition constant Ki); assay type: biochemical; conditions: for Kd: KD (dissociation constant of open species = Ki x popen); for Ki: pH 7.6
T1 construct: Human α-thrombin was purchased from Haemotologic Technologies, Inc., VT, USA; purchased Haemotologic Technologies, Inc., VT, USA

[2] = Thermal unfolding of hairpin linkers (Tm, unfolded population punfold); assay type: physicochemical; conditions: calculated, two-state unfolding
Text: Assuming a two-state unfolding of the trpzip linkers, the unfolded populations punfold=popen (Table 3) can be calculated using reported thermal characteristics of isolated trpzip peptides (Cochran 2001). It is important (Cochran 2001) to take into consideration bulk temperature dependences of the enthalpy and entropy differences between folded and unfolded states of trpzip peptides (Privalov 1997). Disregard for the appreciable ΔCp difference between folded and unfolded species would lead to particularly large underestimation of punfold for BTI5, since the bulk temperatures used for Ki determination were far from the trpzip4 folding transition point.
The punfold value for the BTI2 inhibitor was calculated using ΔH=11.6 kcal/mol and ΔS=39 cal/mol/K obtained in earlier studies of the gb1 peptide (Munoz 1997), which gives punfold values of 0.44 and 0.69 at 21° C. and 37° C., respectively. […] (Table 3). More importantly, all the KD values are close to those of BTI1 which contains a flexible (or random-coil) (GS)8 linker, which confirms the predicted small variation in KD values for bivalent ligands connected by flexible linkers of equal contour length and similar composition (Zhou 2001a; Zhou, 2001b).

Molecule `CC[C@H](C)[C@H](NC(=O)[C@H](CCC(=O)O)NC(=O)[C@H](CCC(=O)O)NC(=O)[C@H](Cc1ccccc1)NC(=O)[C@H](CC(=O)O)NC(=O)CNC(=O)[C@H](CO)NC(=O)CNC(=O)[C@H](CO)NC(=O)CNC(=O)[C@H](CO)NC(=O)CNC(=O)[C@H](CO)NC(=O)CNC(=O)[C@H](CO)NC(=O)CNC(=O)[C@H](CO)NC(=O)CNC(=O)[C@H](CO)NC(=O)CNC(=O)[C@H](CO)NC(=O)CNC(=O)[C@H]1CCCCN1C(=O)[C@H](CCCNC(=N)N)NS(=O)(=O)c1ccc(C(C)(C)C)cc1)C(=O)N1CCC[C@H]1C(=O)N[C@@H](CCC(=O)O)C(=O)N[C@@H](CCC(=O)O)C(=O)N[C@@H](Cc1ccc(O)cc1)C(=O)N[C@@H](CC(C)C)C(=O)N[C@@H](CCC(N)=O)C(=O)O` [BTI1] has a Kd ([1]; T = 21° C.) of 0.53 ± 0.03 nM, a Kd ([1]; T = 37° C.) of 1.3 ± 0.3 nM and a Ki ([1]; Ki, T = 21° C.) of 0.53 ± 0.03 nM. For the same molecule, the Ki ([1]; T = 37° C., read-out: Ki) was 1.3 ± 0.3 nM, the “punfold (population of unfolded/open linker)” value ([2]; T = 21° C.) was 1 and the “punfold (population of unfolded/open linker)” value ([2]; T = 37° C.) was 1.
